# “And” between values parts separate entries of the source, which are not always exact repeats. Equal entries are not always repeated. Where two headings read alike, the source gives them in different places.
# Experiments:
# FRO [1] = experiment: Cell growth assay, experiment 1 (cell count kit 48 h; growth curve 5 days); conditions: for cell number quantified with a cell count kit (Wako), mean: 48 hour-treatment, no SALT I: 1.677
# ERK1/2 = tested on: ERK1/2
# Procedure: Abl was immunoprecipitated from cell lysates using the indicated antibody. In vitro kinase assay was performed as described previously (Dorey et al., Oncogene, 2000, […]:8075-84). Radiolabelled GST-Crk was quantified using a PhosphorImager (Molecular Dynamics, Inc., Sunnyvale, Calif., USA). […] Stimulation was with 20% FCS for 8 minutes, cell lysates were collected and subjected to SDS-PAGE and Western blotting carried out using antibodies against ERK1/2 and the phosphorylated form of ERK1/2. […] A common response to extracellular signals such as growth factors is the activation of the mitogen-activated protein (MAP) kinase cascade.
# 1F3 cell line = conditions: IF3 cells, 10 μM of SALT I (data not shown)
# ARO [2] = experiment: Cell growth assay, experiment 1 (cell count kit 48 h; growth curve 5 days); conditions: for cell number quantified with a cell count kit (Wako), mean: 48 hour-treatment, no SALT I: 0.959
# [3] = tested on: Refractory Progressive Thyroid Carcinoma; conditions: SALT I without any other therapy; rapid growth and invasion during the previous year
# Procedure: This clinical study is part of the Phase I/II clinical study which is exploratory in nature.
# When any mild adverse effect occurs, the dose is decreased to 200 mg once daily depending on the degree of the adverse effect. […] In principle, where the tumor size is reduced by half, the dose is increased up to 800 mg/day and continued for a maximum of six months. […] No concomitant use of an anticancer drug is permitted in principle. Drugs that relieve other conditions or symptoms may be used concomitantly with caution exercised for their adverse effects.
# ARO [4] = conditions: 10 μM of SALT I
# Procedure: (§1) For flow cytometry analysis, cells were fixed with 70% ethanol and wash with PBS. After pre-incubation with RNase A (0.1 mg per ml) at room temperature, cells were stained with PI (25 μg per ml). Fluorescence was measured by using FACScan flow cytometer (Becton Dickinson, Mountain View, Calif.). This experiment was performed at least three times.
# 1F3 = conditions: 1F3, 10 μM of SALT I, 48 hours
# Procedure: as §1
# TPC-1 = conditions: TPC-1, 10 μM of SALT I, 48 hours
# Procedure: as §1
# FRO [5] = conditions: 10 μM of SALT I, 48 hours
# Procedure: as §1
# [6] = tested on: thyroid cancer cell lines
# Procedure: as §1
# KTC-1 [7] = conditions: KTC-1, 10 μM of SALT I, 48 hours
# Procedure: as §1
# KTC-1 [8] = experiment: Cell growth assay, experiment 1 (cell count kit 48 h; growth curve 5 days); conditions: for cell number quantified with a cell count kit (Wako), mean: 48 hour-treatment, no SALT I: 0.413
# [9] = tested on: cell cycle regulatory proteins (p21cip1, p27kip1, cyclin A, B1, CDC2, cyclin D3)
# Text: After transfer onto nitrocellulose membranes (Pall Corporation, Ann Arbor, Mich., USA), blots were probed with the appropriate antibodies. β-actin was used as a loading control. The antibodies used were: anti-p21waf1 (Ab-1, Calbiochem, Darmstardt, Germany), anti-p27-8, Santa Cruz Biotechnology, Santa Cruz, Calif., USA), anti-cyclin A (C88020, BD Biosciences, Boston, Mass., USA), anti-cyclin B1 (C23420, BD Biosciences), anti-CDK1/Cdc2 (C12720, BD Biosciences), anti-cyclin D3 (C28620, BD Biosciences), anti-Phospho-c-ABL (Tyr245, Cell Signaling Technology, Beverly, Mass., USA), anti-c-Abl (24-11, Santa Cruz Biotechnology), anti-c-KIT (C-14, Santa Cruz Biotechnology), anti-PDGFRα (C-20, Santa Cruz Biotechnology), anti-PDGFRβ (P-20, Santa Cruz Biotechnology), anti-ERK1/2 (Cell Signalling Technology), anti-p-ERK (Cell Signalling Technology) and anti-Actin (C-11, Santa Cruz Biotechnology). Detection was performed with an enhanced chemiluminescence kit (ECL, Amersham Life Sciences, Buckinghamshire, UK). Immunoblotting experiments were performed at least twice. […] Since p53 status is likely to have some effect on the level of c-Abl protein, the expression level of c-Abl in 1F3 cells was also measured. […] The cyclin-dependent kinase (CDK) inhibitors, p21^cip1 and p27^kip1, can block CDK activity in the S to G2 as well as in the G1 to S phase transition of the cell cycle. […] The activity of CDKs is dependent, in part, on the relative abundance of cyclin subunits and the presence of CDK inhibitors. Among the cyclins and CDKs, cyclin A, B, and CDC2 are involved in the progression from G2 to M phase.
structure (smiles),measurement,setting,value
CS(=O)(=O)O.Cc1ccc(NC(=O)c2ccc(CN3CCN(C)CC3)cc2)cc1Nc1nccc(-c2cccnc2)n1 [SALT I],"growth suppression, dose dependence","FRO [1]; FRO (undetectable p53), lower than 50 μM, 48 h",show growth suppression in SALT I dose dependent manner
same,cell growth curve on a 5 day period,"FRO [1]; FRO, 10 μM of SALT I, compared to control cells",time-dependent reduction of cell growth
same,cell death,"FRO [1]; FRO, 50 μM of SALT I, 48 h",died
same,"cell number quantified with a cell count kit (Wako), mean","FRO [1]; FRO, SALT I 1 μM",1.414
same,"cell number quantified with a cell count kit (Wako), mean","FRO [1]; FRO, SALT I 10 μM",1.192
same,"cell number quantified with a cell count kit (Wako), mean","FRO [1]; FRO, SALT I 50 μM",0.228
same,phosphorylation of ERK1/2 in response to serum stimulation,ERK1/2,had no effect on its phosphorylation
same,level of p-ERK1/2,"ERK1/2; ARO and FRO, 10 μM SALT I for two hours, 20% FCS for 8 minutes",did not affect
same,cell growth curve on a 5 day period,1F3 cell line,do not change the cell growth
same,"growth suppression, dose dependence","ARO [2]; ARO (mutant p53), lower than 50 μM, 48 h",show growth suppression in SALT I dose dependent manner
same,cell growth curve on a 5 day period,"ARO [2]; ARO, 10 μM of SALT I, compared to control cells",time-dependent reduction of cell growth
same,cell death,"ARO [2]; ARO, 50 μM of SALT I, 48 h",died
same,"cell number quantified with a cell count kit (Wako), mean","ARO [2]; ARO, SALT I 1 μM",0.785
same,"cell number quantified with a cell count kit (Wako), mean","ARO [2]; ARO, SALT I 10 μM",0.539
same,"cell number quantified with a cell count kit (Wako), mean","ARO [2]; ARO, SALT I 50 μM",0.096
same,tumor growth in first patient (preliminary results),[3],stopped their growth for 3 months
same,increase of the proportion of cells in G2/M-phase versus DMSO,ARO [4]; 48 hours (9.28% vs. 3.78%),increased more then two-fold
same,percentage of cells in G2-M phase,"ARO [4]; 48 hours, DMSO 3.8",9.28% and 9.3%
same,percentage of cells in S phase,"ARO [4]; 48 hours, DMSO 19.7",13.1%
same,percentage of cells in G1 phase,"ARO [4]; 48 hours, DMSO 76.6",77.6%
same,effect on cell cycle (G2/M or S-phase changes),1F3,No such changes were observed
same,percentage of cells in S phase,1F3; DMSO 9.4,9.1%
same,percentage of cells in G2-M phase,1F3; DMSO 27.3,20.4%
same,percentage of cells in G1 phase,1F3; DMSO 63.3,70.5%
same,effect on cell cycle (G2/M or S-phase changes),TPC-1,No such changes were observed
same,percentage of cells in S phase,TPC-1; DMSO 9.7,9.3%
same,percentage of cells in G2-M phase,TPC-1; DMSO 22.6,13.1%
same,percentage of cells in G1 phase,TPC-1; DMSO 67.8,77.6%
same,effect on cell cycle (arrest),FRO [5],S-phase arrest
same,percentage of cells in G2-M phase,FRO [5]; DMSO 24.95,15% and 14.98%
same,percentage of cells in G1 phase,FRO [5]; DMSO 32.16,30.91%
same,percentage of cells in S phase,FRO [5]; DMSO 43.26,54% and 54.11%
same,DNA fragmentation in the DNA ladder assay,[6]; after 48 hours of treatment (data not shown),no DNA fragmentation was detected
same,apoptotic fraction (sub-G1),"[6]; after 48 hours of treatment, in any cell line",did not significantly increase
same,effect on cell cycle (G2/M or S-phase changes),KTC-1 [7],No such changes were observed
same,percentage of cells in S phase,KTC-1 [7]; DMSO 7.68,6.53%
same,percentage of cells in G2-M phase,KTC-1 [7]; DMSO 20.11,18.7%
same,percentage of cells in G1 phase,KTC-1 [7]; DMSO 72.2,74.77%
same,"growth suppression, dose dependence","KTC-1 [8]; KTC-1 (wild type p53), lower than 50 μM, 48 h",do not
same,cell growth curve on a 5 day period,"KTC-1 [8]; KTC-1, 10 μM of SALT I (data not shown)",do not change the cell growth
same,cell death,"KTC-1 [8]; KTC-1, 50 μM of SALT I, 48 h",died
same,"cell number quantified with a cell count kit (Wako), mean","KTC-1 [8]; KTC-1, SALT I 1 μM",0.403
same,"cell number quantified with a cell count kit (Wako), mean","KTC-1 [8]; KTC-1, SALT I 10 μM",0.379
same,"cell number quantified with a cell count kit (Wako), mean","KTC-1 [8]; KTC-1, SALT I 50 μM",0.064
same,Expression of p2^cip1,[9],markedly increased
same,Expression of p27^kip1,[9],increased
same,"levels of cyclin A, B1 and CDC2","[9]; ARO and FRO cell lines, 10 μM of SALT I, 24 hours",reduced
same,level of cyclin D3,"[9]; ARO cells, 10 μM of SALT I, 24 hours",reduced
same,Expression of p2^cip1,"[9]; ARO, KTC-1 and 1F3 cells, 10 μM of SALT I",did not change
same,"levels of cyclin A, B1, CDC2 and cyclin D3","[9]; KTC-1 and 1F3, 10 μM of SALT I, 24 hours",had no effect

# From patent US20060106026A1, “4-(4-methylpiperazin-1-ylmethyl)-n-[4-pyridin-3-yl)pyrimidin-2-ylamino)phenyl]-benzamide for treating anaplastic thyroid cancer” (priority 2002, published 2006)
